In patent US11479528B2, “Heat shock protein 90 inhibitors” (TAIPEI MEDICAL UNIVERSITY, priority 2017, dated 2022):
Like-named read-outs stand apart in the source and are kept apart here.

Legend:
[1] = system: HUVEC cells; experiment: Sulforhodamine B (SRB) assay, HUVEC; details: for GI50: Homo sapiens, HUVEC
Experimental: (§1) Human cancer cells were purchased from the American Type Culture Collection (Manassas, Va., USA). These cell lines were cultured in RPMI 1640 medium or DMEM supplemented with 10% FBS (v/v) and pencillin (100 U/mL)/streptomycin (100 ug/mL)/amphotericin B (0.25 ug/mL). Cultures were maintained at 37° C. in a humidified atmosphere of 5% CO2/95% air.
(§2) Cells were seeded in 96-well plates in medium with 5% fetal bovine serum. After 24 h, cells were fixed with 10% trichloroacetic acid to represent cell population at the time of drug addition (T0). After additional incubation of DMSO or drugs for 48 h, cells were fixed with 10% trichloroacetic acid and sulforhodamine B at 0.4% (w/v) in 1% acetic acid was added to stain cells. Unbound sulforhodamine B was washed out by 1% acetic acid and sulforhodamine B-bound cells were solubilized with 10 mmol/L Trizma base. The absorbance was read at a wavelength of 515 nm. Using the following absorbance measurements, such as time zero (T0), control growth (C), and cell growth in the presence of the drug (Tx), the percentage growth was calculated at each of the compound concentrations levels. Percentage growth inhibition was calculated as […].

[2] = system: liver Hep3B; experiment: Sulforhodamine B (SRB) assay, liver Hep3B; format: cell-based; details: Homo sapiens
Experimental: as §1, §2

[3] = Pharmacokinetic profiles in rat; details: in vivo
Experimental: A pharmacokinetic study was conducted to evaluate the pharmacokinetic properties of compounds of formula (I).

[4] = system: colorectal HCT116; experiment: Sulforhodamine B (SRB) assay, colorectal HCT116; format: cell-based; details: Homo sapiens
Experimental: as §1, §2

[5] = system: breast MDA-MB-231; experiment: Sulforhodamine B (SRB) assay, breast MDA-MB-231; format: cell-based; details: Homo sapiens
Experimental: as §1, §2

[6] = Maximum tolerated dose and therapeutic index in vivo; details: for MTD: in vivo, po
[7] = system: human colon HCT116 xenograft; experiment: Human colon HCT116 xenograft model; details: 100 mg/kg, po; for TGI, tumor growth inhibition: n = 7-8
Experimental: An in vivo study was conducted to evaluate the efficacy of compounds of formula (I) in suppressing tumor growth in a human colon HCT116 xenograft model.

[8] = target: HSP90 α protein (Homo sapiens, UniProt P07900); experiment: HSP90 ATP-binding / fluorescence polarization competition assay (enzyme inhibition)
Experimental: To assess the inhibition of HSP90 activity within a cellular context, cells were treated with certain substituted aromatic compounds of formula (I) and the inhibition of HSP90 ATP-binding activity in cells was determined by using an ATP pull-down assay. Cells were treated with the compounds for 24 hours and then lysed in TNESV buffer (50 mM Tris, 2 mM EDTA, […], 1 mM activated sodium orthovanadate, 25 mM NaF, 1% Triton X-100 [pH 7.5]) for 30 min at 4° C. Lysates were spun for 30 min at 12000 rpm at 4° C. Protein (200 ug) was incubated with conditioned γ-ATP-polyacrylamide resin in incubation buffer (10 mM Tris-HCl, 50 mM KCl, 5 mM MgCl2, 20 mM Na2MoO4, 0.01% Nonidet P-40) overnight at 4° C., rotating. The resin was then washed four times with incubation buffer. Bound proteins were isolated by boiling with SDS buffer. For the competition studies, fluorescence polarization assays were performed under the following conditions: each 96-well plate contained 5 nM fluorescent GM (geldanamycin), 30 nM HSP90 α protein, and tested inhibitor in a final volume of 100 uL. For each assay, background wells (buffer only), tracer controls (free, fluorescent GMonly), and bound GM controls (fluorescent GM in the presence of HSP90) were included on each assay plate. The fraction of tracer bound to HSP90 was correlated to the mP value and plotted against log 10 values of competitor concentrations. The inhibitor concentration at which 50% of bound GM was displaced was obtained by fitting the data.

[9] = system: lung A549; experiment: Sulforhodamine B (SRB) assay, lung A549; format: cell-based, human; details: Homo sapiens
Experimental: Human cancer cells were purchased from the American Type Culture Collection (Manassas, Va., USA).
Cells were seeded in 96-well plates in medium with 5% fetal bovine serum. […] Unbound sulforhodamine B was washed out by 1% acetic acid and sulforhodamine B-bound cells were solubilized with 10 mmol/L Trizma base. […] Using the following absorbance measurements, such as time zero (T0), control growth (C), and cell growth in the presence of the drug (Tx), the percentage growth was calculated at each of the compound concentrations levels. Percentage growth inhibition was calculated as […].

[10] = system: HSP90 client proteins, i.e., EGFR, Akt, CDK-4, and HSP70, in HCT-116 tumor cells; experiment: Western blot of HSP90 client proteins in HCT-116 tumor cells; format: cell-based, human; details: HCT-116 cells, 24 hours after treatment
Experimental: Western blot analysis was performed to detect cell apoptotic signaling activated by substituted aromatic compounds of formula (I). Cells were harvested by scraping with lysis buffer (1 mM EGTA, 1 mM EDTA, 150 mM NaCl, 1% Triton X-100, 2.5 mM sodium pyrophosphate, 1 mM PMSF, 1 mM Na3VO4, 1 ug/mL leupeptin, 1 ug/mL aprotinin, 5 mM NaF in 20 mM Tris-HCl buffer, pH 7.5). Cell lysates were centrifuged at 13,000 g for 30 min. Total protein was determined and equal amounts of protein were separated by SDS-PAGE and immunoblotted with specific antibodies. Proteins were visualized by enhanced chemiluminescence (Amersham, Buckinghamshire, UK).
Total cellular extracts were obtained 24 hours after treatment.

[11] = 48 h, read-out: GI50 Liver Hep3B
[12] = HCT-116, 48 h, read-out: GI50 Colorectal HCT116
[13] = MDA-MB-231, 48 h, read-out: GI50 Breast MDA-MB-231
[14] = MDA-MB-231, read-out: MDA-MB-231 GI50
[15] = A549, 48 h, read-out: GI50 Lung A549

| Structure (SMILES) | TI, Therapeutic Index measured by GI50(HUVEC)/GI50(A549) [1] | GI50 ([1]; 48 h, read-out: GI50 HUVEC) [nM] | GI50 [2, 11] [nM] | AUC(0-inf) ([3]; iv, 2 mg/kg) [ng·h/mL] | Vd ([3]; iv, 2 mg/kg) [L/kg] | clearance ([3]; iv, 2 mg/kg) [mL/min/kg] | half-life ([3]; iv, 2 mg/kg) [min] | AUC(0-inf) ([3]; po, 20 mg/kg) [ng·h/mL] | Cmax ([3]; po, 20 mg/kg) [ng/mL] | Tmax ([3]; po, 20 mg/kg) [h] | bioavailability ([3]; po, 20 mg/kg) [%] | half-life ([3]; po, 20 mg/kg) [min] | GI50 [4, 12] [nM] | GI50 ([4]; HCT-116, read-out: HCT116 GI50) [nM] | GI50 [5, 13] [nM] | TI, Therapeutic Index, ratio of MTD to minimum efficacious dose (MED) [6] | MTD [6] [mg/kg] | IC50 [8] [nM] | GI50 [9, 15] [nM] | GI50 ([9]; A549, read-out: A549 GI50) [nM] | also measured |
| --- | --- | --- | --- | --- | --- | --- | --- | --- | --- | --- | --- | --- | --- | --- | --- | --- | --- | --- | --- | --- | --- |
| CC(C)c1cc(C(=O)N(C)c2ccc3[nH]ccc3c2)c(O)cc1O [Compound 20b, 2,4-dihydroxy-N-(1H-indol-5-yl)-5-isopropyl-N-methylbenzamide] | 3.4 | 570 ± 20 | 180 ± 40 | 142 ± 25 | 18 ± 4.5 | 237 ± 37 | 78 ± 18 | 533 ± 154 | 82 ± 34 | 2.2 ± 1.8 | 37 | 450 ± 78 | 1000 ± 490 | 1000 ± 490 | 70 ± 10 | <2.5 | < 250 | 115 ± 10.7 | 170 ± 10 | 170 ± 10 | GI50 ([1]; read-out: HUVEC GI50): 570 ± 20 nM; GI50 ([2]; read-out: Hep3B GI50): 180 ± 40 nM; GI50 [5, 14]: 70 ± 10 nM; Loss of Body ([7]; qd × 7/5 on 2 off, Day 5): −8.5%; TGI, tumor growth inhibition ([7]; qd × 7/5 on 2 off): 37.7%; expression levels of the chaperone HSP70 [10]: increase; levels of HSP90 client proteins (EGFR, Akt, CDK-4) [10]: substantial depletion |
| CC(C)c1cc(C(=O)N(C)c2ccc3c(ccn3C)c2)c(O)cc1O [Compound 20g, 2,4-dihydroxy-5-isopropyl-N-methyl-N-(1-methyl-1H-indol-5-yl)benzamide] | 2.9 | 820 ± 30 | 570 ± 320 | 288 ± 59 | 4.3 ± 1.3 | 117 ± 23 | 42 ± 6 | 36 ± 5 | 12.8 ± 8.3 | 0.5 ± 0.4 | 1.3 | 132 ± 36 | 700 ± 60 | 700 ± 60 | 100 ± 20 | <2.5 | < 250 | 106 ± 7.58 | 280 ± 20 | 280 ± 20 | GI50 ([1]; read-out: HUVEC GI50): 820 ± 30 nM; GI50 ([2]; read-out: Hep3B GI50): 570 ± 320 nM; GI50 [5, 14]: 100 ± 20 nM; TGI, tumor growth inhibition ([7]; qd): 83.9%; expression levels of the chaperone HSP70 [10]: increase; levels of HSP90 client proteins (EGFR, Akt, CDK-4) [10]: substantial depletion |
| CCN(C(=O)c1cc(C(C)C)c(O)cc1O)c1ccncc1 [Compound 19b, N-ethyl-2,4-dihydroxy-5-isopropyl-N-(pyridin-4-yl)benzamide] | – | < 100 | – | – | 12 ± 8.9 | – | – | – | 51 ± 9 | 0.3 ± 0.1 | 11 | – | – | – | – | – | – | – | – | – | GI50 ([2]; Table 1, SRB, 48 h, read-out: GI50 Liver Hep3B): 100 ± 10 nM; AUC(0-inf) ([3]; iv, 2 mg/kg, AUC(0-inf), IV (2 mg/kg)): 442 ± 49 ng·h/mL; clearance ([3]; iv, 2 mg/kg, CL, IV (2 mg/kg)): 75 ± 4.8 mL/min/kg; half-life ([3]; iv, 2 mg/kg, T1/2, rat, IV (2 mg/kg)): 486 ± 282 min; AUC(0-inf) ([3]; po, 20 mg/kg, AUC(0-inf), PO (20 mg/kg)): 485 ± 103 ng·h/mL; half-life ([3]; po, 20 mg/kg, T1/2, rat, PO (20 mg/kg)): 660 ± 456 min; GI50 ([4]; HCT-116, Table 1, SRB, 48 h, read-out: GI50 Colorectal HCT116): 640 ± 410 nM; GI50 ([4]; HCT-116, Table 2, SRB, read-out: HCT116 GI50): 640 ± 410 nM; GI50 ([5]; MDA-MB-231, Table 1, SRB, 48 h, read-out: GI50 Breast MDA-MB-231): 80 ± 10 nM; TGI, tumor growth inhibition ([7]; qd): 29.1%; IC50 ([8]; 5 nM fluorescent GM, 30 nM HSP90 α, read-out: HSP90 IC50 enzyme inhibition): 109 ± 5.35 nM; GI50 ([9]; A549, Table 1, SRB, 48 h, read-out: GI50 Lung A549): 120 ± 10 nM; GI50 ([9]; A549, Table 2, SRB, read-out: A549 GI50): 120 ± 10 nM |
| CCN(C(=O)c1cc(C(C)C)c(O)cc1O)c1ccc2[nH]ccc2c1 [Compound 20c, N-ethyl-2,4-dihydroxy-N-(1H-indol-5-yl)-5-isopropylbenzamide] | – | < 100 | 110 ± 20 | 234 ± 114 | 9 ± 2.8 | 170 ± 64 | 90 ± 30 | 499 ± 38 | 67 ± 23 | 2.7 ± 1.2 | 22 | 354 ± 96 | 370 ± 50 | 370 ± 50 | 80 ± 10 | 1 | 100 | 117 ± 9.62 | 110 ± 10 | 110 ± 10 | Loss of Body ([7]; qd × 7/5 on 2 off, Day 7): −15.4%; TGI, tumor growth inhibition ([7]; qd × 7/5 on 2 off): 33.1% |
